Experimental findings from US4080460A, “Biguanides and therapeutic compositions and uses of the same” (Aron Sarl, priority 1975, dated 1978) are described below.

Data set [1] can be described thus: acute toxicity investigation in mice. To be noted: mouse, in vivo.
A further data set deals with Doca rats. The data set is described as follows: action on the control of blood pressure in Doca rats. In kind it is in vivo, rat. To be noted: oral, 2 × 3 mg/kg. On the procedure:
(§1) The above results are confirmed by the results of an investigation of the action on the control of blood pressure. On oral administration of a dosage of 2 × 3 mg/kg of compound to Doca rats (Technique according to Green and co-workers, Am. J. Physiol, 1952, 170, p.94) and to Grollman rats (Techniques according to Grollman, Proc. Soc. Exp. Biol. Med., 1944, 57, p.102), the precent decrease of the systolic blood pressure with respect to its original value is noted.

The test system of a further data set is Grollman rats. The data set is described as follows: action on the control of blood pressure in Grollman rats. The format is in vivo, rat. To be noted: oral, 2 × 3 mg/kg. On the procedure: as §1
Data set [2] concerns uptake of ^3 H noradrenalin by the synaptosomes of a rat hypothalamus homogenate. The data set is described as follows: inhibition of the uptake of ^3 H noradrenalin by the synaptosomes of a rat hypothalamus homogenate. The format is biochemical. To be noted: with respect to the control test. An excerpt:
The compounds of the formula (I) are capable of modifying the accumulation of noradrenalin and particularly to inhibit the uptake of ^3 H noradrenalin by the synaptosomes of a rat hypothalamus homogenate prepared according to Banerjee, Snyder and Mechoulam (J. Pharmacol. Exp. Ther., 194, 1, 74, 1975). This inhibition of the uptake of ^3 H noradrenaline is a known property of various compounds having an activity on the central nervous system and/or on the sympathetic nervous system, particularly a hypotensive effect (J. Glowinski and J. Axelrod, Effects of Drugs on the Disposition of ^3 H norepinephrine in the Rat Brain, Pharmacological Reviews, Vol. 18, n°1, Part I, 1966).
They are expressed as percent inhibition of the uptake with respect to the control test.

[3] abbreviates: iv, read-out: LD50 (mg/kg) i.v.
[4] abbreviates: po, read-out: LD50 (mg/kg) p.o.
The mark [5] stands for this setting: 5 × 10^-5 M ultimate concentration.
Setting [6] is: 5 × 10^-6 M ultimate concentration.
The mark [7] stands for this setting: 5 × 10^-4 M ultimate concentration.

The structures appear in SMILES notation. Counter-ions that a name gives are not always drawn. Like-named read-outs stand apart in the source and are kept apart here. A value given as a limit tells only on which side of the number the result lay.

As for `Cc1conc1NC(=N)NC(=N)N` [Example 8], the LD50 in data set [1] (setting [3]) is 70 mg/kg; in data set [1] (setting [4]) it was 300 mg/kg. Besides, the “percent decrease of the systolic blood pressure with respect to its original value” (“percent decrease” for short) with Doca rats and with Grollman rats was 15% throughout. Also, the results for the “inhibition % of the uptake of ^3 H noradrenalin” value (“inhibition %” for short) in data set [2] (setting [5]) and in data set [2] (setting [6]) were 55% and 36%, respectively.

Regarding `CCCCc1cc(NC(=N)NC(=N)N)no1` [Example 5], the LD50 in data set [1] (setting [4]) was 600 mg/kg. Also, the “percent decrease” value in the data set with Doca rats was 10%. The “inhibition %” value in data set [2] (setting [7]) turned out to be 69.5%.

Take `CCCCNC(=N)NC(=N)Nc1cc(C)on1` [Example 13]: the LD50 was found to be 35 mg/kg in data set [1] (setting [3]) and 250 mg/kg in data set [1] (setting [4]). Besides, the “inhibition %” value in data set [2] (setting [7]) worked out at 63.1%.

Take `Cc1conc1NC(=N)NC(=N)N(C)C` [Example 11]: the figures for the LD50 in data set [1] (setting [3]) and in data set [1] (setting [4]) were 40 mg/kg and 300 mg/kg, respectively. In addition, in the data set on Doca rats, the “percent decrease” value turned out to be 15%. In data set [2] (setting [7]), the “inhibition %” value is reported as 60.1%.

Turning to `Cc1cc(NC(=N)NC(=N)N2CCN(C)CC2)no1` [Example 19], the LD50 stood at 100 mg/kg in data set [1] (setting [3]) and 2000 mg/kg in data set [1] (setting [4]). The “percent decrease” value in the data set with Grollman rats came out at 20%. Further, the “inhibition %” value in data set [2] (setting [7]) was found to be 53.8%.

For `Cc1cc(NC(=N)NC(=N)N2CCOCC2)no1` [Example 20], the LD50 in data set [1] (setting [3]) is 100 mg/kg; in data set [1] (setting [4]), 750 mg/kg. Moreover, the “inhibition %” value in data set [2] (setting [7]) is reported as 46.6%.

Regarding `CC(C)c1cc(NC(=N)NC(=N)N)no1` [Example 6], in data set [1] (setting [4]), the LD50 came to 200 mg/kg. Further, the “inhibition %” value in data set [2] (setting [5]) was determined as 54.6%.

With `Cc1cc(N(C)C(=N)NC(=N)N)no1` [Example 7], the “percent decrease” value in the data set with Doca rats was 15%. The “inhibition %” value in data set [2] (setting [7]) is 48.1%.

`Cc1noc(NC(=N)NC(=N)N(C)C)c1C` [Example 22]: the LD50 in data set [1] (setting [4]) was found to be 700 mg/kg. Moreover, in data set [2] (setting [7]), the “inhibition %” value stood at 38.1%.

As to `CCc1cc(NC(=N)NC(=N)N)no1` [Example 4], the figures for the LD50 in data set [1] (setting [3]) and in data set [1] (setting [4]) were 45 mg/kg and 500 mg/kg, respectively. Moreover, the “inhibition %” value in data set [2] (setting [7]) was 52.7%.

Take `N=C(N)NC(=N)Nc1ccon1` [Example 9]: the LD50 in data set [1] (setting [3]) is above 150 mg/kg; in data set [1] (setting [4]) it was above 1000 mg/kg. For the same compound, in data set [2] (setting [7]), the “inhibition %” value turned out to be 68.6%.

For `Cc1cc(NC(=N)NC(=N)N)no1` [Example 1, (5-methyl-isoxazol-3-yl)biguanide hydrochloride], the values for the LD50 in data set [1] (setting [3]) and in data set [1] (setting [4]) were 115 mg/kg and 700 mg/kg, respectively. Moreover, the “percent decrease” value with Doca rats amounted to 25%; in the data set with Grollman rats it was 20%.

Take `CNC(=N)NC(=N)Nc1cc(C)on1` [Example 2, 1-methyl-5-(5-methyl-isoxazol-3-yl)biguanide]: in data set [1] (setting [4]), the LD50 worked out at 900 mg/kg. Further, the “inhibition %” value in data set [2] (setting [7]) is listed as 53.6%.

On to `CCN(C(=N)NC(=N)N)c1cc(C)on1` [Example 16], for which the LD50 in data set [1] (setting [4]) was above 750 mg/kg. For the same compound, the “inhibition %” value in data set [2] (setting [7]) was determined as 37.9%.

Consider `Cc1cc(NC(=N)NC(=N)N(C)C)no1` [Example 3], for which the results for the LD50 in data set [1] (setting [3]) and in data set [1] (setting [4]) were 140 mg/kg and 800 mg/kg, respectively. Moreover, the “percent decrease” value in the data set on Grollman rats was 10%. Moreover, the “inhibition %” value in data set [2] (setting [7]) turned out to be 47.9%.

With `CCc1conc1NC(=N)NC(=N)N` [Example 14], the LD50 in data set [1] (setting [4]) was 500 mg/kg. In addition, the results for the “inhibition %” value in data set [2] (setting [5]) and in data set [2] (setting [6]) were 61.8% and 46.5%, respectively.

As to `Cc1onc(N(C)C(=N)NC(=N)N)c1C` [Example 10], the LD50 in data set [1] (setting [3]) is 100 mg/kg; in data set [1] (setting [4]), above 500 mg/kg. Further, the “inhibition %” value in data set [2] (setting [7]) turned out to be 19.5%.
